Data published in patent US20260125374A1, “PI3K-ALPHA INHIBITORS AND METHODS OF MAKING AND USING THE SAME” (Relay Therapeutics, Inc., priority 2021, published 2026).
≈ marks a conversion by molar mass, not a printed value.

How the values were obtained:
Assay type in all cases: physicochemical
[1] = Bulk stability (1 week); design: key to CL (color): A: No change of color; B: Slight discoloration; C: Medium discoloration; D: Strong discoloration; DC: complete decomposition; conditions: for CL (color) / Bulk (HPLC) chiral purity / Bulk (HPLC) purity / Bulk (XRPD): Solid state, 1 week
Protocol: Bulk stability of I-1 Form A and the 2 salt candidates was investigated at 25° C./92% RH in an open container, at 40° C./75% RH in an open container and at 60° C. in a tight container over 1 week. […] All the 3 salts show no obvious racemization based on chiral purity results.
I-1 Form A and the 2 salts were placed at 25° C./92% RH in an open container, at 40° C./75% RH in an open container and at 60° C. in a closed container for I week. Samples after I week were characterized by XRPD and HPLC and inspected for color change.

[2] = Suspension stability at 25° C.; conditions: for Solubility (μg/mL): LOQ: 0.25 μg/mL
Protocol: Suspension stability: Suspension stability of I-1 Form A and the 2 salt candidates was investigated in pure water, 0.5% (w/w) Tween 80 aqueous solution and 0.5% (w/w) MC (400 cP)+2% (w/w) Vitamin E TPGS aqueous solution at 25° C. for 2 h and 24 h. Target concentration was 2 mg/mL.
To confirm whether racemization occurs for the 2 salts in 0.5% (w/w) MC (400 cP)+2% (w/w) Vitamin E TPGS aqueous solution, the suspension stability in this vehicle was repeated at target concentration of 10 mg/mL. […] The hygroscopicity of these salts were further investigated.
Accurate 10 mg of I-1 Form A, 12.83 mg of I-3 Form A, 11.58 mg of I-4 Form A was weighed into a 8 mL glass vial, respectively. 5 mL of suspension vehicle was added, respectively. The salt amount used is equivalent to 10 mg anhydrous free form. These suspensions were stirred at 25° C. with 400 rpm. These suspensions were taken out at 2 hours and 24 hours, then centrifuged at 14,000 rpm for 5 min. The supernatants were analyzed by HPLC and pH meter. Solids obtained (wet cakes) were characterized by XRPD and HPLC to determine the chiral purity.
Accurate […] of I-3 Form A, 46.3 mg of I-4 Form A was weighed into a 8 mL glass vial, respectively. 4 mL of solubility medium was added, respectively. The salt amount used is equivalent to 40 mg anhydrous free form. 4 mL of the aqueous vehicle (0.5% (w/w) MC (400 cP) and 2% (w/w) Vitamin E TPGS in water) was added, respectively. These suspensions were stirred at 25° C. with 400 rpm. These suspensions were taken out at 2 hours and 24 hours, then centrifuged at 14,000 rpm for 5 min. The supernatants were analyzed by HPLC for the solubility and chiral purity and analyzed by pH meter. Solids obtained (wet cakes) were characterized by XRPD and HPLC for chiral purity.

[3] = Salt screening (XRPD, chiral purity of hits)
Protocol: Based on the pKa of I-1 free form, 23 counter ions were selected as salt/cocrystal forming agents. Methanol, acetone and isopropyl acetate were used as screening solvents. 1.0 equivalent of selected counter ions/coformers was applied for salt screening. Slurry equilibration, slow evaporation and anti-solvent addition were used as crystallization methods. In total, about 70 screening experiments were conducted.
About 50 mg of I-1 Form A were added to a suitable amount of solvent and 1.0 equivalent of counter ions were added under stirring at 50° C. for 2 hours and then at 25° C. for at least 12 hours. MeOH, acetone and IPAc were used as screening solvents.
Obtained suspensions were taken out and centrifuged. Solids obtained were analyzed by XRPD and salt screening results were summarized in Table 5.1, Table 5.2, and Table 5.3.

[4] = Salt candidates risk matrix (summary)
[5] = 25° C./92% RH, open container, listed as I-1 Form A
[6] = 40° C./75% RH, open container, listed as I-1 Form A
[7] = 60° C., tight container, listed as I-1 Form A
[8] = before storage, listed as I-1 Form A
[9] = 25° C., 2 mg/mL, 0.5%(w/w) MC(400 cP) and 2%(w/w) Vitamin E TPGS in water, 2 h, listed as I-1 Form A
[10] = 25° C., 2 mg/mL, 0.5%(w/w) MC(400 cP) and 2%(w/w) Vitamin E TPGS in water, 24 h, listed as I-1 Form A
[11] = 25° C., 2 mg/mL, 0.5%(w/w) Tween 80 in water, 2 h, listed as I-1 Form A
[12] = 25° C., 2 mg/mL, 0.5%(w/w) Tween 80 in water, 24 h, listed as I-1 Form A
[13] = 25° C., 2 mg/mL, Pure water, 2 h, listed as I-1 Form A
[14] = 25° C., 2 mg/mL, Pure water, 24 h, listed as I-1 Form A

## N#Cc1c(-c2cc(NC(=O)c3cc(F)cc(C(F)(F)F)c3)c3c(c2)C(=O)N[C@H]3c2cc(F)ccc2Cl)ccc2ncnn12 [Compound I-1, (R)-N-(3-(2-chloro-5-fluorophenyl)-6-(5-cyano-[1,2,4]triazolo[1,5-a]pyridin-6-yl)-1-oxoisoindolin-4-yl)-3-fluoro-5-(trifluoromethyl)benzamide]
[1]; [4]
  Chemical stability: Stable
  Physical stability: Stable
[1]; 25° C./92% RH, open container
  CL (color): A
[1]; [5]
  Bulk (HPLC) chiral purity: 98.9%
  Bulk (HPLC) purity: 99.0%/
  Bulk (XRPD): No form change
[1]; 40° C./75% RH, open container
  CL (color): A
[1]; [6]
  Bulk (HPLC) chiral purity: 98.9%
  Bulk (HPLC) purity: 99.0%/
  Bulk (XRPD): No form change
[1]; 60° C., tight container
  Bulk (XRPD): No form change
  CL (color): A
[1]; [7]
  Bulk (HPLC) chiral purity: 98.9%
  Bulk (HPLC) purity: 99.0%/
[1]; [8]
  Chiral purity (initial): 99.0%
  Initial purity by HPLC: 99.0%
[2]; 3 vehicles, 25° C., 2 mg/mL
  physical stability in suspension (XRPD): physically stable
  racemization in suspension: no racemization
[2]; 25° C., 2 mg/mL, 0.5%(w/w) MC(400 cP) and 2%(w/w) Vitamin E TPGS in water, 2 h
  Chiral purity (solids): 98.7%
[2]; [9]
  Chiral purity: 64.8%
  Purity: 99.5%
  Solubility: 47.9 µg/mL (≈ 78.7 µM)
  pH: 5.02
[2]; 25° C., 2 mg/mL, 0.5%(w/w) MC(400 cP) and 2%(w/w) Vitamin E TPGS in water, 24 h
  Chiral purity (solids): 96.6%
[2]; [10]
  Chiral purity: 97.7%
  Purity: 99.1%
  Solubility: 34.5 µg/mL (≈ 56.7 µM)
  pH: 4.30
[2]; [11]
  Chiral purity: 83.2%
  Chiral purity (solids): 98.8%
  Purity: 99.1%
  Solubility: 25.5 µg/mL (≈ 41.9 µM)
  pH: 6.52
[2]; [12]
  Chiral purity: 93.0%
  Chiral purity (solids): 97.6%
  Purity: 99.2%
  Solubility: 17.6 µg/mL (≈ 28.9 µM)
  pH: 7.40
[2]; 25° C., 2 mg/mL, Pure water, 2 h
  Solubility (μg/mL): <LOQ
[2]; [13]
  Chiral purity (solids): 98.8%
  Purity: 99.1%
  pH: 6.79
[2]; 25° C., 2 mg/mL, Pure water, 24 h
  Solubility (μg/mL): <LOQ
[2]; [14]
  Chiral purity (solids): 96.7%
  Purity: 99.2%
  pH: 8.27
[2]; before suspension, listed as I-1 Form A
  Initial chiral purity: Initial chiral purity: 98.9%
[2]; water, 0.5% Tween 80, 0.5% MC (400 cP)+2% Vitamin E TPGS, 25° C., 2 h and 24 h, 2 mg/mL
  chemical stability in suspension: chemically stable
[3]; 1.0 equiv. HCl, Isopropyl acetate (second block of table)
  Salt screening result (slurry crystallization): clear solution
[3]; 1.0 equiv. HCl, MeOH
  Salt screening result (slurry crystallization): − (I-1 Form A) (Free form, counter ions, or physical mixtures)
[3]; 1.0 equiv. Hydrobromic acid, Acetone
  Salt screening result (slurry crystallization): thin suspension
[3]; 1.0 equiv. Hydrobromic acid, Acetone/MTBE
  Salt screening result (anti-solvent): thin suspension
[3]; 1.0 equiv. Hydrobromic acid, IPAc/MTBE
  Salt screening result (anti-solvent): thin suspension
[3]; 1.0 equiv. Hydrobromic acid, Isopropyl acetate
  Salt screening result (slurry crystallization): clear solution
[3]; 1.0 equiv. Hydrobromic acid, MeOH
  Salt screening result (slurry crystallization): − (I-1 Form A) (Free form, counter ions, or physical mixtures)
[3]; 1.0 equiv. L-aspartic acid, Acetone
  Salt screening result (slurry crystallization): − (physical mixtures (Free form, counter ions, or physical mixtures)
[3]; 1.0 equiv. L-aspartic acid, Isopropyl acetate
  Salt screening result (slurry crystallization): − (physical mixtures (Free form, counter ions, or physical mixtures)
[3]; 1.0 equiv. L-aspartic acid, MeOH
  Salt screening result (slurry crystallization): − (physical mixtures (Free form, counter ions, or physical mixtures)
[3]; 1.0 equiv. L-glutamic acid, Acetone
  Salt screening result (slurry crystallization): − (physical mixtures (Free form, counter ions, or physical mixtures)
[3]; 1.0 equiv. L-glutamic acid, Isopropyl acetate
  Salt screening result (slurry crystallization): − (physical mixtures (Free form, counter ions, or physical mixtures)
[3]; 1.0 equiv. L-glutamic acid, MeOH
  Salt screening result (slurry crystallization): − (physical mixtures (Free form, counter ions, or physical mixtures)
[3]; 1.0 equiv. L-malic acid, Acetone
  Salt screening result (slurry crystallization): thin suspension
[3]; 1.0 equiv. L-malic acid, Acetone/MTBE
  Salt screening result (anti-solvent): −(I-1 Form B) (Free form, counter ions, or physical mixtures)
[3]; 1.0 equiv. L-malic acid, Isopropyl acetate
  Salt screening result (slurry crystallization): − (I-1 Form A) (Free form, counter ions, or physical mixtures)
[3]; 1.0 equiv. L-malic acid, MeOH
  Salt screening result (slurry crystallization): − (I-1 Form A) (Free form, counter ions, or physical mixtures)
[3]; 1.0 equiv. L-tartaric acid, Acetone
  Salt screening result (slurry crystallization): thin suspension
[3]; 1.0 equiv. L-tartaric acid, Acetone/MTBE
  Salt screening result (anti-solvent): −(I-1 Form B) (Free form, counter ions, or physical mixtures)
